“Also recorded” adds a separate entry of the source.
Tested on: MDA-MB231 breast cancer cells
Experiment: Microcapillary motility assay (MMA) with agents that alter microtubule dynamics
Type: cell-based, human
Details: for kymograph analysis of single cell motility: 18 hour period, FIG. 13; for concentration at which persistent motility is inhibited: microcapillaries, no chemical gradient; for effect on persistent migration behavior: different concentrations, summary of Example 11; for effect on speed of cancer cell migration through the microcapillary array: result in words
Excerpt: Referring now to FIGS. 7A-7B, a microcapillary motility assay (MMA) device 700 including microfluidic devices 750 were manufactured by casting polydimethyl siloxane (PDMS, Dow Corning, Midland. Mich.) on a microstructured mold. The microstructured mold was fabricated using standard photolithographic technologies. A silicon wafer was coated with a 10 μm thin layer of photoresist (SU8, Microchem, Newton, Mass.) and processed following the standard protocol as recommended by the manufacturer. A second, thicker layer of approximately 50 μm was then photopatterned on the same wafer and aligned with respect to the first layer in order to define the connections between the capillaries and the wells. The mold was placed in a Petri-dish and covered with PDMS freshly prepared according to the manufacturer's instructions. After baking for 8 hours at 65° C., the cast PDMS was removed from the mold, one microwell for each device was punched using a 2 mm puncher, and each device was cut using a 5 mm puncher. After exposure for 20 seconds to oxygen plasma in a plasma asher (March, Concord, Calif.), the devices were individually bonded on the coverslips at the bottom of 24-well plates (Mattek, Ashland, Mass.).
After bonding, and while the PDMS was still hydrophilic, 2 μL of a solution of 2 μg/mL collagen IV was added inside the center microwell of each device. The strong capillary force ensured the collagen solution filled the capillaries. Excess collagen was later washed away by adding 5 μL of phosphate buffer (PBS) in only one well of the devices. Alternatively, 2 μL of Matrigel (BD Biosciences, San Jose, Calif.) was added in one well at 4° C. and the entire plate was heated to 37° C. for 5 minutes.
Before performing each migration assay, cells growing in cell culture flasks were washed with PBS, lifted from the surface using trypsin or 10 mM calcium chelator solution in buffer (EDTA, Sigma Aldrich, St. Louis, Mo.), suspended into 10 mL of media, centrifuged, and re-suspended into media at 10^6 cells/mL. Cells were then seeded in one well of each device, by directly pipetting 3-4 μL of the cell suspension in each well. After loading the cells, 3 mL of corresponding media were added to each well of the multi-well plate, completely covering the devices.
To image the moving cells, the multi-well plate was placed on the motorized stage of a Zeiss Axiovert microscope fitted with an environmental chamber. The environment was set at 37.7° C. and 5% CO2. Cells were imaged using 10× objective and phase contrast. Three separate images from each array were acquired every 6 minutes for 24-48 hours. Because cell motility is restricted only along the capillary, in one linear dimension, the motility is easy to image and easy to quantify for extended periods of times. We have tracked cells for more than 72 hours.
To quantify the migration of individual cells, images were analyzed using the manual tracking function in the Image J software. The middle of cells was tracked through the series of frames and only cells entering the microcapillaries were tracked. At least 50 cells migrating through the capillaries were tracked for each condition. Average velocity over 12 hours was calculated from temporary velocities over each 6 minutes interval and presented as mean and standard error of the mean.
To probe into the mechanisms responsible for persistent cell migration, we exposed the cells to drugs that alter microtubule dynamics while performing the MMA described in Example 2 using the microfluidic device shown in FIG. 2.

[1] = MDA-MB231 breast cancer line, FIG. 11

SMILES	kymograph analysis of single cell motility (taxol 12 nM)	concentration at which persistent motility is inhibited [1]	speed of the fastest cells under drug (Taxol between 1 and 10 μM, some cells only)	effect on persistent migration behavior	effect on speed of cancer cell migration through the microcapillary array	kymograph analysis of single cell motility (nocodazole 0.05 ng/mL)	concentration at which migration of the fastest moving cells is inhibited (MDA-MB231 breast cancer line, FIG. 11, only Nocodazole)	concentration that significantly altered the speed of migration for all cells in the population (all cells in the population)	concentration of significant decrease in motility (dose response) (migration through microcapillary array)
CC(=O)O[C@H]1C(=O)[C@@]2(C)[C@H]([C@H](OC(=O)c3ccccc3)[C@]3(O)C[C@H](OC(=O)[C@H](O)[C@@H](NC(=O)c4ccccc4)c4ccccc4)C(C)=C1C3(C)C)[C@]1(OC(C)=O)CO[C@@H]1C[C@@H]2O [Taxol, Paclitaxel]	persistent movement along the microcapillary; also recorded: reverses direction at the end of the microcapillary	above 100 ng/mL	> 100 μm/hour	does not alter the persistent migration	significantly decrease the speed				
COC(=O)Nc1nc2ccc(C(=O)c3cccs3)cc2[nH]1 [Nocodazole]		above 0.5 ng/mL		alteration of the persistent migration behavior	significantly decrease the speed	frequent changes of direction and less persistence	above 1 ng/mL	> 1 µM	< 100 nM

Source: patent US8790891B2, “Microfluidic cell motility assay” (The General Hospital Corporation, priority 2009, dated 2014)
